Reference: article PMC11094793, “Discovery of LLC0424 as a Potent and Selective in Vivo NSD2 PROTAC Degrader” (Journal of Medicinal Chemistry, 2024)

What was measured:
[1] = biological target: T1, NSD2 (both long and short isoforms) (Homo sapiens, UniProt O96028); assay: NSD2 degradation by immunoblotting in ALL cell lines RPMI-8402 and SEM (NSD2 E1099K); assay type: cell-based; conditions: for Dmax / DC50: 24 h
T1 sequence (O96028 211-350 limits assumed): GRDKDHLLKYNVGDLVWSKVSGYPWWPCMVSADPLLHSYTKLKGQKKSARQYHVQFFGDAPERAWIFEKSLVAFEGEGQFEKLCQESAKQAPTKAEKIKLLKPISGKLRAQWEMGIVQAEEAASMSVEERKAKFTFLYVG
Method: As previous studies have shown that ALL cell lines with NSD2 gain-of-function mutation are more dependent on NSD2 regarding H3K36me2 level and cell proliferation,[7],[8] we further characterized LLC0424 in ALL cell lines with NSD2 E1099K gain-of-function mutation (RPMI-8402 and SEM). We first treated these cells with LLC0424 with different concentrations for 24 h. […] In addition, we compared the degradation efficiency of LLC0424 with the two previously published NSD2 degraders 6 and 7 at different concentrations and time points.
After treatment, the cultured cells were collected and rinsed with phosphate-buffered saline (PBS) in room temperature. The cells were treated with RIPA buffers (ThermoFisher Scientific) supplemented with Halt Protease and Phosphatase Inhibitor Cocktail (ThermoFisher Scientific). After sonication and centrifugation, the total amount of protein in the cell lysates was measured by Pierce Bovine Serum Albumin Standard Pre-Diluted Set (ThermoFisher Scientific). After mixed with LDS-sample buffer (Invitrogen) supplemented with Sample Reducing Agent (Invitrogen) and heated in 70 °C for 10 min, equal amount of protein was loaded into NuPAGE 4–12%, Bis-Tris Protein Gel (ThermoFisher Scientific) or NuPAGE 3–8%, Tris-Acetate Protein Gel (ThermoFisher Scientific), and blotted with primary antibodies. After incubated with HRP-conjugated secondary antibodies, the membranes were developed with ECL Prime Western Blotting Detection Reagent (cytiva) and imaged on Odyssey Fc Imager (LiCOR Biosciences).

[2] = test system: RPMI-8402 cells; assay: TMT global proteomics in RPMI-8402 cells; assay type: cell-based, human; conditions: for Abundance Ratio (log2): (LLC0424) / (DMSO): RPMI-8402
Method: We conducted a global proteomic assay using tandem mass tags (TMT) labeled mass-spectrometry to unbiasedly quantify the protein change upon LLC0424 treatment in VCaP and RPMI-8402 cells. […] We further used SEM cell line to cross-validate the selectivity of LLC0424 for NSD2 over NSD1 and NSD3 as well as CRBN neo-substrates IKZF1, IKZF3, GSPT1, and CK-1α using immunoblotting. […] When we increased the treatment time of LLC0424 in SEM cells, we observed mild decrease of GSPT1 from 12 h (SI, Figure S3F).
RPMI-8402 cells were plated at 10 × 10^6 cells per plate on 10 cm tissue culture plates overnight before treating with DMSO (control) or 2 μM LLC0424 with 3 replicates for each treatment. After 8 h, whole cell lysates were collected using RIPA buffer (ThermoFisher Scientific) and quantified using Pierce Bovine Serum Albumin Standard Pre-Diluted Set (ThermoFisher Scientific). Cell lysates were proteolyzed and labeled with TMT 6-plex Isobaric Label Reagent (ThermoFisher Scientific) according to the protocol from the manufacturer and subjected to 8 fractions of liquid chromatography–mass spectrometry (LC-MS)/MS analysis as described.[33] We plotted the results using graphpad prism. To gain protein changes with high confidence, we screened the results of (LC-MS)/MS analysis with the criteria of peptides number >4 and unique peptides number >1. […]
Figure S3. LLC0424 was a selective NSD2 degrader. […]

[3] = test system: NSD2-overexpressed SEM cells; assay: Viability of NSD2-overexpressed versus parental SEM cells; assay type: cell-based, human; conditions: 2 μM LLC0424, 9 days, CTG assay
Method: NSD2 is the primary methyltransferase that transfers dimethyl to H3K36 in ALL with NSD2 gain-of-function mutation. Therefore, the effects of LLC0424 on H3K36me2 was evaluated in SEM and RPMI-8402 cells. […] Meanwhile, LLC0424 treatment also led to downregulation of H3K36Me2 in RPMI-8402 cells within 24 h (Figure 6B). […] We also conducted a colony formation assay to evaluate the effect of LLC0424 on the stem cell-like property of the leukemia cells. […]
Figure S4. […] (A) SEM or RPMI-8402 cells were treated with 2 µM LLC0424, degrader 6, degrader 7, or DMSO for 9 days and quantified for cell viability by CellTiter-Glo (CTG) assay at different days. Data are reported as the mean of five independent experiments ± SD; (B) RNA sequencing of SEM cells treated with LLC0424N or DMSO; (C) Immunoblotting of NSD2, and H3 in parental and NSD2-overexpression SEM cell lines; (D) parental or NSD2 overexpression SEM cells were treated with DMSO or 2 µM LLC0424 for 9 days and quantified for cell viability by CTG assay. Data are reported as the mean of four independent experiments ± SD; (E) VCaP cells and 22RV1 cells were treated with DMSO, 2 µM LLC0424, or 2 µM LLC0424N for 18 days and quantified for cell viability by CTG assay at different days. […]

O=C1CCC(N2C(=O)c3ccc(N4CCC(NC(=O)c5ccc(NC(=O)c6ccc(CN(C(=O)c7ccc8c(c7)OCC(=O)N8)C7CC7)cc6)cc5)CC4)cc3C2=O)C(=O)N1 (centres unmarked) [compound 10l, N-Cyclopropyl-N-(4-((4-((1-(2-(2,6-dioxopiperidin-3-yl)-1,3-dioxoisoindolin-5-yl)piperidin-4-yl)carbamoyl)phenyl)carbamoyl)benzyl)-3-oxo-3,4-dihydro-2H-benzo[b][1,4]oxazine-7-carboxamide]
Dmax ([1]; RPMI 8402, RPMI-8402 cells): > 96% | Dmax ([1]; RPMI 8402, SEM cells): > 78% | time at which NSD2 degradation started ([1]; RPMI-8402 and SEM cells, 2 μM): 4 h | time to significant NSD2 degradation ([1]; RPMI-8402 and SEM cells, 2 μM): ≤ 8 h | NSD2 degradation, comparison of degraders ([1]; RPMI-8402 and SEM cells, 0.5 and 2 μM for 24 h or 2 μM for 12 and 24 h): significant NSD2 degradation | DC50 ([1]; RPMI-8402 cells): 20 nM | DC50 ([1]; SEM cells): 110 nM | Abundance Ratio (log2): (LLC0424) / (DMSO) ([2]; protein accession P35579): 0.04 | Abundance Ratio (log2): (LLC0424) / (DMSO) ([2]; protein accession P78527): -0.02 | Abundance Ratio (log2): (LLC0424) / (DMSO) ([2]; protein accession Q01082): 0.05 | Abundance Ratio (log2): (LLC0424) / (DMSO) ([2]; protein accession Q13813): 0.03 | Abundance Ratio (log2): (LLC0424) / (DMSO) ([2]; protein accession Q14204): 0.05 | number of proteins significantly decreased in global proteomics ([2]; RPMI-8402 cells, 2 μM): 3 | cell viability in NSD2-overexpressed versus parental SEM cells [3]: significantly higher in NSD2-overexpressed SEM cells
